“Also recorded” adds a separate entry of the source.
Key:
rabbit corneas = assay: In vivo PTB of 6-mm penetrating keratoplasty incisions anchored by sutures, bursting pressure; conditions: 1% Rose Bengal, 191 J/cm2, 6-mm PK incision with 4-16 sutures
Experimental: (§1) PTB was performed in vivo in New Zealand rabbits to repair two types of corneal wounds.
In Group II, 6-mm Penetrating Keratoplasy (PK) incisions anchored by 4-16 sutures were performed in 16 rabbit corneas. Half of the corneas in each group underwent PTB where 1% Rose Bengal dye was applied to the wound edges followed by laser irradiation at fluence of 191 J/cm2. Photoactivation was performed with a 514 nm Argon Laser and a 532-nm CW Nd: YAG laser. Wound leak and incisional bursting pressure were determined in vivo in the immediate postoperative period.

[1] = Absorption maxima and absorption coefficients of photosensitizers; type: physicochemical
Source text: The photosensitizers were used as received with the exception of N-HPT which was recrystallized twice from aqueous ethanol before use.

cornea = assay: Examination of eyes for thermal damage after PTB (tissue shrinkage, deformation); parameters: species or system rabbit; conditions: RB PTB
Source text: Post-treatment, the eyes were examined for the presence of thermal damage. Tissue shrinkage and deformation around the wound site were taken as signs of thermal damage. Thermal damage to the cornea was not observed at the lowest irradiance tested (1.27 W/cm2). […] Thermal effects produced using high irradiances may produce collagen contraction resulting in distortion of the patient's vision.

[2] = tested on: bovine tendon / NeuraGen collagen conduit interface; assay: Tensile strength of PTB bond between NeuraGen conduit and bovine tendon; conditions: RB dye, 532 nm, fluence of 150-300 Joules, 0.25 cm^2 interface
Experimental: Additional experiments were also performed to determine the effectiveness of PTB bonding between the NeuraGen™ conduits and an animal tissue, namely bovine tendon tissue. To do this, the tensile strength of a PTB bond formed between the bovine tendon and a segment of Neuregen™ conduit was tested, using various different photoactive dyes. Both the tendon surface and the inner surface of a piece of conduit were coated with RB dye and allowed to sit in the dark for 60 seconds. The two surfaces were then thoroughly dried and pressed together to form a tendon/conduit interface of approximately 0.25 cm^2. The construct was irradiated at 532 nm through the conduit toward the tendon/conduit interface at various fluence levels (Joules). Constructs were then pulled into tension using a tensiometer until the bond between the tendon and the conduit broke. The breaking force was measured in Newtons.

bovine achilles tendons = assay: PTB of ruptured bovine achilles tendons in vitro, ultimate stress and stiffness; conditions: for Mean change in stiffness % (95% CI) / Mean change in ultimate stress % (95% CI): relative to healthy tendon
Experimental: To test the ability of PTB to quickly and effectively bond ruptured tendons, an in vitro model utilizing bovine tendons was developed. The use of bovine models in wound healing is well known by those skilled in the art. The similarities between bovine wound healing and that of humans enables one to extrapolate the therapeutic results obtained in a bovine model system to a therapeutic result in humans.
Fresh bovine achilles tendons were obtained and stored at […] until use. The tendon was cut into dumbbell-shaped 5 cm strips with the central 3 cm strip at an approximate cross-sectional area of 1 mm by 1 mm, and were irrigated constantly with phosphate buffered saline (PBS) to prevent desiccation.
Rupture of the tendon was induced by weakening the central 1 cm of the tendon with a surgical blade and mechanically pulling it apart. A solution of Rose Bengal at various concentrations (0.1, 0.5 and 1.0% weight per volume in PBS) was applied to the ends of the ruptured tendons for two minutes, after which the ruptured ends were approximated and the excess dye was removed.
The ruptured ends of the tendon were crossed over each other with an overlap of approximately 1 cm before being wrapped by several layers of tissue paper. The tissue wrapped tendon was rolled and pressed in order to approximate the ruptured ends and remove the excess dye. The tissue paper was carefully removed before the tendon was placed between two glass slides that were then clipped together.
The center of the approximated tendon was irradiated with an argon laser (514 nm), having a spot size of 1 cm in diameter, which was transmitted through an optic fiber. The laser was applied with an irradiance of 0.5, 1.0, or 1.5 W/cm^2, while the fluence of laser energy applied was 125, 250, 500, or 750 J/cm^2. The exposure time ranged from 1 min and 23 seconds to 25 minutes.
Control tendons were ruptured in the same manner, however treatments consisted of application of Rose Bengal and approximation of the tendon ends without laser irradation, approximation of the tendon ends with laser irradiation but no exposure to rose bengal, and approximation of the ends with no further treatment.
To test the effectiveness of the photochemical tissue bonding, immediately after photochemical tissue bonding, the tendon strips were attached to the fixture of a tensiometer, which was coupled to a force transducer (FIG. 17). The tendon was held at a straight and vertical position, and cyclic loading of the tendon was conducted by stretching the tendon for a magnitude of 0.5 mm for 6 cycles. The tendon was brought back to a zero deflection position before being pulled to failure at a constant speed of 100 mm/min. The peak force needed to rupture the tendon was recorded, and a typical force-deflection curve was obtained (FIG. 18). The ultimate stress and stiffness (peak force for tendon rupture normalized by the cross-sectional area, and slope of the linear region of the force-deflection curve, respectively) were calculated from the force-deflection curve.
Healthy tendons were also placed in the tensiometer, and were pulled to the point of failure. Following failure, they were treated with photochemical tissue bonding at 500 J/cm^2 fluence and again pulled to failure to study the percentage of recovery of mechanical properties. Immediately after the photochemical tissue bonding, the ultimate stress and the stiffness returned to approximately 59.66% and 52.75% of the healthy tendon, respectively (Table 1).

[3] = tested on: rabbit (New Zealand White) corneas; assay: In vivo PTB of 3.5-mm corneal incisions, incisional bursting pressure; conditions: 1.5 mM RB
Experimental: as §1
In group I 3.5-mm incisions were performed in 20 rabbit (New Zealand White) corneas. Dose and laser irradiance were varied in subgroups of five or more eyes for each condition and appropriate control eyes. Photoactivation was performed with a 514 nm Argon Laser. Wound leak and incisional bursting pressure of the treated and untreated rabbit eyes was determined in vivo, with the animals under anesthetic.
Group I wounds were healed using, e.g., 191 J/cm2, applying 1.5 mM RB. The immediate in vivo bursting pressure was 495±10 mm Hg for PTB treated eyes. Under the same conditions the values of the busting pressure in the control eye varied from 15 to 60 mm Hg. One day after surgery, the bursting pressure was the same for PTB treated eyes and control eyes (approximately 450±125 mmHg). At 14 days, the bursting pressure exceeded 500 mm Hg in both PTB-treated and control eyes.

[4] = argon laser 514 nm and Rose Bengal
[5] = higher Rose Bengal concentrations (0.0, 0.1, 0.5, 1.0% w/v in PBS)

## O=C([O-])c1c(Cl)c(Cl)c(Cl)c(Cl)c1-c1c2cc(I)c(=O)c(I)c-2oc2c(I)c([O-])c(I)cc12.[Na+].[Na+] [Rose Bengal]
Rabbit corneas
  immediate bursting pressure: 410±70 mm Hg
[1]
  absorption maximum: 550 nm
[1]; RB at 514 nm, Fl at 488 nm, MB at 661 nm, R-5-P at 488 nm, N-HPT at 351 nm
  absorption coefficient at the laser wavelength used: 33000 dm^3 mol^−1 cm^−1
cornea; 2.55 W/cm2
  thermal damage to the cornea: occasionally
cornea; 762 to 1524 J/cm2 at 3.82 W/cm2
  thermal damage to the cornea: could be observed
cornea; lowest irradiance 1.27 W/cm2
  thermal damage to the cornea: not observed
[2]
  bond between tendon and conduit (breaking force): effective bond was formed
Bovine achilles tendons; 1.0% Rose Bengal
  dehydration of the tendon: dehydration of the tendon was noticed
Bovine achilles tendons; Dye control (dye, no laser)
  Mean change in stiffness % (95% CI): 20.65 (10.16, 31.14) %
  Mean change in ultimate stress % (95% CI): 24.18 (6.57, 41.79) %
Bovine achilles tendons; Laser + Dye, 500 J/cm^2
  Mean change in stiffness % (95% CI): 52.75 (24.05, 81.45) %
  Mean change in ultimate stress % (95% CI): 59.66 (8.71, 110.61) %
Bovine achilles tendons; [4]
  stiffness of ruptured tendon vs controls: significantly increased; also recorded: significant increase
  ultimate stress of ruptured tendon vs controls: significantly increased; also recorded: significant increase
Bovine achilles tendons; [5]
  stiffness of ruptured tendon: significant increase
  ultimate stress of ruptured tendon: significant increase
[3]; 191 J/cm2, 514 nm, 3.5-mm incision
  immediate in vivo bursting pressure: 495±10 mm Hg
[3]; 191 J/cm2, also in control eyes
  bursting pressure at 14 days: exceeded 500 mm Hg
[3]; 191 J/cm2, same as control eyes
  bursting pressure one day after surgery: approximately 450±125 mmHg
